Where two headings read alike, the source gives them in different places.
Assays:
[1] = system: A549 (non-small cell lung cancer); test: NCI method SRB growth inhibition, A549; type: cell-based; settings: Homo sapiens; A549, treated 48 hours, SRB stain
From the text: (§1) In this embodiment, the method of National Cancer Institute (NCI) was used to evaluate the anti-tumor activity of the embodiment compounds in the present disclosure. Nine representative cell lines were selected for activity evaluation, including A549 (non-small cell lung cancer), HCT116 (colon cancer), SF295 (central nervous system tumor), LOX-IMVI (melanoma), 786-0 (renal cancer), K562 (leukemia), PC-3 (prostate cancer), OVCAR-3 (ovarian cancer) and HS 578T (breast cancer).
(§2) The specific method was as follows: 60 tumor cell lines of 9 kinds of human cancers were used to evaluate the inhibitory activity of the compound in vitro. A test group, a parallel control group and a vehicle control group were set up. The parallel control group was fixed immediately before the compound was added; the cells in the test group were fixed after being treated with the compound for 48 hours; the vehicle control group was fixed after an equal volume of complete medium was added for 48 hours. Sulforhodamine B (SRB) was used to stain, and the OD value was measured at a wavelength of 515 nm. The specific calculation method was as follows: the OD value of the parallel control group was recorded as Tz, the OD value of the vehicle control group was recorded as C, and the OD value of the test group was recorded as (Ti). If Ti≥Tz, it means that the cells still grow after the drug was added, and the growth rate %=[(Ti−Tz)/(C−Tz)]×100; if Ti<Tz, it means that the cells are killed after the drug was added, and the growth rate %=[(Ti−Tz)/Tz]×100. Three parameters were used to evaluate the anti-tumor activity of compounds in this method: 50% growth inhibitory concentration (GI50): i.e. the compound concentration at [(Ti−Tz)/(C−Tz)]×100=50; complete growth inhibitory concentration (TGI): the compound concentration at Ti=Tz; the drug concentration required to kill 50% of the cells (LC50): i.e. the compound concentration at [(Ti−Tz)/Tz]×100=−50.
(§3) The inhibitory activities of the embodiment compounds on nine representative tumor cell lines were listed in detail in Table 1. Wherein, the GI50 value means “50% growth inhibition rate”, that is, the concentration of the compound to be tested when it can inhibit […] of cell growth; “ND” means not detected.

786-0 (renal cancer) = test: NCI method SRB growth inhibition, 786-0; type: cell-based; settings: Homo sapiens; 786-0, treated 48 hours, SRB stain
From the text: as §1, §2, §3

HCT116 (colon cancer) = test: NCI method SRB growth inhibition, HCT116; type: cell-based; settings: Homo sapiens, HCT-116; HCT116, treated 48 hours, SRB stain
From the text: as §1, §2, §3

K562 (leukemia) = test: NCI method SRB growth inhibition, K562; type: cell-based; settings: Homo sapiens; K562, treated 48 hours, SRB stain
From the text: as §1, §2, §3

PC-3 (prostate cancer) = test: NCI method SRB growth inhibition, PC-3; type: cell-based; settings: Homo sapiens; PC-3, treated 48 hours, SRB stain
From the text: as §1, §2, §3

LOX-IMVI (melanoma) = test: NCI method SRB growth inhibition, LOX-IMVI; type: cell-based; settings: Homo sapiens, treated 48 hours, SRB stain
From the text: as §1, §2, §3

[2] = system: SF295 (central nervous system tumor); test: NCI method SRB growth inhibition, SF295; type: cell-based; settings: Homo sapiens, SF-295; SF295, treated 48 hours, SRB stain
From the text: as §1, §2, §3

OVCAR-3 (ovarian cancer) = test: NCI method SRB growth inhibition, OVCAR-3; type: cell-based; settings: Homo sapiens; OVCAR-3, treated 48 hours, SRB stain
From the text: as §1, §2, §3

HS 578T (breast cancer) = test: NCI method SRB growth inhibition, HS 578T; type: cell-based; settings: Homo sapiens, HS578T, treated 48 hours, SRB stain
From the text: as §1, §2, §3

[3] = Liver microsomes stability; type: in vitro ADME, human; settings: 1 μM compound, 1 mg/mL human liver microsomes, 1 mM NADPH; for half-life at 1 μM: read-out: T½ of HLM
Experimental: The compound to be tested with final concentration of 1 μM was incubated with 1 mg/mL of human liver microsomes and 1 mM of NADPH, and a group without NADPH was set as a negative control. The reaction mixture was quenched with methanol at five time points of 0, 5, 15, 30 and 60 min, respectively, then centrifuged at 2500 rpm for 20 min to precipitate proteins, and the resulting supernatant was analyzed by LC-MS/MS. The data was analyzed and the k value and half-life T1/2 was calculated, T1/2(min)=0.693/k.
Wherein, compounds a, b and c are active compounds disclosed in patent No. ZL201610154581.3.

Row | Compound | GI50 [1] [nM] | GI50 (786-0 (renal cancer)) [nM] | GI50 (HCT116 (colon cancer)) [nM] | GI50 (K562 (leukemia)) [nM] | GI50 (PC-3 (prostate cancer)) [nM] | GI50 (LOX-IMVI (melanoma)) [nM] | GI50 [2] [nM] | GI50 (OVCAR-3 (ovarian cancer)) [nM] | GI50 (HS 578T (breast cancer)) [nM] | half-life at 1 μM [3] [h] | microsomal CLint at 1 μM ([3]; human, human liver microsomes) [µL/min/mg] | microsomal CLint at 1 μM [3] [µL/min/mg] | half-life at 1 μM ([3]; human, human liver microsomes) [h]
1 | [2H]C([2H])([2H])Oc1cc(C(=O)Nc2cc3c(cc2Oc2cc(C)cc(C)c2)C(=O)N[C@@H](CC(=O)C(C)(C)P(=O)(OC)OC)C(=O)N3)c(Br)c(OC([2H])([2H])[2H])c1OC([2H])([2H])[2H] [Compound 26, (S)-dimethyl-(4-8-(2-bromo-3,4,5-tris(trideuteromethoxy)benzoyl)-7-(3,5-dimethylphenoxy)-2,5-dioxo-2,3,4,5-tetrahydro-1H-benzo[e][1,4]diazepin-3-yl)-2-methyl-3-oxobutyl-2-yl)dimethyl phosphate] | 13 | 57.4 | 14.2 | < 5 | < 5 | 6.2 | 42.7 | 6 | 10 | 3.62 | 3.2 | – | –
2 | [2H]C([2H])([2H])Oc1cc(C(=O)Nc2cc3c(cc2Oc2cc(C)cc(C)c2)C(=O)N[C@@H](CC(=O)N(C)O)C(=O)N3)c(Br)c(OC([2H])([2H])[2H])c1OC([2H])([2H])[2H] [Compound 31] | < 5 | 28.1 | 17 | < 5 | < 5 | < 5 | 58 | < 5 | 8.6 | 0.722 | 16 | – | –
3 | [2H]C([2H])([2H])Oc1cc(C(=O)Nc2cc3c(cc2Oc2cc(C)cc(C)c2)C(=O)N[C@@H](CC(=O)N2CCC(F)(F)CC2)C(=O)N3)c(Cl)c(OC([2H])([2H])[2H])c1OC([2H])([2H])[2H] [Compound 10, (S)-2-chloro-N-[3-[2-(4,4-difluoropiperidin-1-yl)-2-oxoethyl]-7-(3,5-dimethylphenoxy)-2,5-dioxo-2,3,4,5-tetrahydro-1H-benzo[e][1,4]diazepin-8-yl]-3,4,5-tris(trideuteromethoxy)benzamide] | 35.4 | 37 | 34.7 | < 5 | < 5 | < 5 | 10.7 | < 5 | 6.4 | – | – | 10.2 | 1.13
4 | [2H]C([2H])([2H])Oc1cc(C(=O)Nc2cc3c(cc2Oc2cc(C)cc(C)c2)C(=O)N[C@@H](CC(=O)N(C)OC)C(=O)N3)c(Br)c(OC([2H])([2H])[2H])c1OC([2H])([2H])[2H] [Compound 30] | 4.9 | 8.6 | 7.8 | 1.6 | < 5 | < 5 | 11.6 | < 5 | < 5 | – | – | 4.3 | 2.68
5 | [2H]C([2H])([2H])N1C(=O)c2cc(Oc3cc(C)cc(C)c3)c(NC(=O)c3cc(OC)c(OC)c(OC)c3Cl)cc2NC(=O)[C@@H]1CC(=O)N(C([2H])([2H])C([2H])([2H])[2H])C([2H])([2H])C([2H])([2H])[2H] [Compound 19, (S)-2-chloro-N-[3-[2-[bis(pentadeuteroethyl)amino]-2-oxoethyl]-7-(3,5-dimethylphenoxy)-4-(trideuteromethyl)-2,5-dioxo-2,3,4,5-tetrahydro-1H-benzo[e][1,4]diazepin-8-yl]-3,4,5-trimethoxybenzamide] | 5.9 | 19.7 | 5 | < 5 | < 5 | < 5 | 11.8 | 6.2 | 80.7 | – | – | 21.1 | 0.548

Source: US12577213B2 (NINGBO COMBIREG PHARMACEUTICAL TECHNOLOGY CO., LTD., priority 2020, dated 2026)
